{
  "source": "patent US7196105B2",
  "about": "“Treatment of human multiple myeloma by curcumin” (Research Development Foundation, priority 2002, dated 2007)",
  "key": {"[1]": {"test_system": "multiple myeloma cell lines MM.1S, RPMI-8226 and U266", "details": "50 μM PS-1145; cited from earlier work"}, "U266 cells [2]": {"test_system": "U266 cells", "assay": "Cytotoxic effect of vincristine with or without curcumin (MTT)", "assay_type": "cell-based, human", "details": "vincristine 50 μM alone, 24 h", "description": "The antiproliferative effects of curcumin against different multiple myeloma cell lines were determined by the MTT dye uptake method as described earlier (Manna et al., 1998). Briefly, cells (5000/well) were incubated in triplicate in a 96-well plate in the presence or absence of indicated test samples in a final volume of 0.1 ml for 24 h at 37° C. Thereafter, 0.025 ml of MTT solution (5 mg/ml in PBS) was added to each well. After a 2 h incubation at 37 ° C., 0.1 ml of extraction buffer (20% SDS, 50% dimethylformamide) was added. Incubation was continued for overnight at 37 ° C., and then the OD at 590 nm was measured using a 96-well multiscanner autoreader (Dynatech MR 5000), with extraction buffer as blank. Percent cell viability=(OD of the experiment samples/OD of the control)×100."}, "p65 subunit of NF-κB": {"test_system": "p65 subunit of NF-κB", "assay": "Immunocytochemistry for NF-κB p65 localization in multiple myeloma cell lines", "assay_type": "cell-based, human", "details": "U266 cells, NBD-peptide 100 μM, 12 h", "description": "Red stain indicates the localization of p65 and blue stain (Hoechst) indicates nucleus (magnification 200×). […] U266 cells (2×10^6 cells/ml) were treated with indicated concentrations of NEMO-control or NBD-peptide (100 μM) for the indicated times. Nuclear extracts were then checked for the presence of NF-κB DNA-binding activity by EMSA. […] Untreated or NBD-peptide-treated (100 μM; 12 h) U266 cells were cytospun, and p65 immunocytochemistry was performed as described. Red stain indicates the localization of p65 and blue stain indicates nucleus (magnification 200×). […] U266 cells (2×10^6 cells/ml) were treated with indicated concentrations of NEMO-control or NBD-peptide (100 μM) for the indicated time periods, and cell viability was monitored by the trypan blue dye exclusion method. Percent cell killing was determined as: (number of trypan blue stained cells/total cells)×100. […] Stained slides were mounted with mounting medium (Sigma Colo.) and analyzed under an epifluorescence microscope (Labophot-2, Nikon, Tokyo, Japan). […] Cells with nuclear staining of NF-κB p65 or STAT3 were counted separately. One hundred cells were counted for each specimen, and the sample was graded on the basis of a 4-point scale: −, no nuclear positive cells (0%); +, low number of nuclear positive cells (<10%); ++, moderate number of nuclear positive cells (10–50%); +++, high number of nuclear positive cells (>50%)."}, "U266 cells [3]": {"test_system": "U266 cells", "assay": "Cell viability by trypan blue dye exclusion after NBD peptide treatment", "assay_type": "cell-based, human", "details": "NBD peptide 100 μM, 24 h", "description": "FIG. 8A: U266 cells (2×10^6 cells/ml) were treated with indicated concentrations of NEMO-control or NBD-peptide (100 μM) for the indicated times. Nuclear extracts were then checked for the presence of NF-κB DNA-binding activity by EMSA. FIG. 8B: Untreated or NBD-peptide-treated (100 μM; 12 h) U266 cells were cytospun, and p65 immunocytochemistry was performed as described. Red stain indicates the localization of p65 and blue stain indicates nucleus (magnification 200×). FIG. 8C: U266 cells (2×10^6 cells/ml) were treated with indicated concentrations of NEMO-control or NBD-peptide (100 μM) for the indicated time periods, and cell viability was monitored by the trypan blue dye exclusion method. Percent cell killing was determined as: (number of trypan blue stained cells/total cells)×100."}},
  "data": [
    {"molecule": "O=C(Nc1cc(Cl)cc2c1[nH]c1cnccc12)c1cccnc1", "note": "[PS-1145]", "values": [
      {"measurement": "inhibition of proliferation", "setting": "[1]", "value": "less than 50%"}
    ]},
    {"molecule": "CC[C@]1(O)C[C@H]2CN(CCc3c([nH]c4ccccc34)[C@@](C(=O)OC)(c3cc4c(cc3OC)N(C=O)[C@H]3[C@@](O)(C(=O)OC)[C@H](OC(C)=O)[C@]5(CC)C=CCN6CC[C@]43[C@@H]65)C2)C1", "note": "[vincristine, reference compound]", "values": [
      {"measurement": "killing of U266 cells", "setting": "U266 cells [2]", "value": "minimally effective"}
    ]},
    {"molecule": "NH2-DRQIKIWFQNRRMKWKKTALDWSWLQTE-CONH2 (H-DRQIKIWFQNRRMKWKKTALDWSWLQTE-NH2) [NBD peptide, reference compound]", "values": [
      {"measurement": "nuclear pool of the p65 subunit of NF-κB", "setting": "p65 subunit of NF-κB", "value": "decrease in the nuclear pool of the p65 subunit of NF-κB"},
      {"measurement": "suppression of cell growth", "setting": "U266 cells [3]", "value": "Approximately 32%"}
    ]}
  ]
}
